Earlier results on 1 molecule are cited in PMC2760809 (Nucleic Acids Research, 2009).

The series deals with many RNA molecules, including HIV TAR RNA and group I introns. Particulars: read-out: Kd of arginine for RNA molecules.

As usually defined, the Kd is the equilibrium constant for the complex coming apart. For the molecule `N=C(N)NCCC[C@H](N)C(=O)O` [Arginine], the Kd is over 2000 µM.
